What follows are molecules tested against T1, KRAS G12C 1-169, his-tagged protein, GDP-loaded (Homo sapiens, UniProt P01116, G12C) (assay: Biochemical assay: covalent modification of KRAS G12C measured by mass spectrometry (RapidFire/TOF or Q-Exactive)). Settings: covalent binding to (modification of) KRAS G12C after a ten minute incubation period.
T1 construct: KRAS G12C 1-169, his-tagged protein, GDP-loaded
Type: binding
How it was run: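 Intact-mass readout (TOF or Q-Exactive, charge-envelope deconvolution) gives percent covalent adduct from modified and unmodified species. Compound at 10, 30 or 100 μM was incubated at room temperature for 10 min to 24 h with 2 μM or 0.5 μM GDP-bound KRAS G12C 1-169 in Hepes/NaCl/MgCl2 buffer, then acid-quenched.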

SMILES | Binding %
C=CC(=O)N1C[C@H](C)N(c2nc(OC[C@@H]3CCCN3C)nc3c(F)c(-c4c(C)ccc5[nH]nc(C6CC6)c45)c(Cl)cc23)C[C@H]1C (atropisomer, axis not shown) [Compound 227, 1-((2R,5S)-4-((S)-6-chloro-7-(3-cyclopropyl-5-methyl-1H-indazol-4-yl)-8-fluoro-2-(((S)-1-methylpyrrolidin-2-yl)methoxy)quinazolin-4-yl)-2,5-dimethylpiperazin-1-yl)prop-2-en-1-one] | + (+ indicates binding activity greater than 0% and up to 50%)
C=CC(=O)N1C[C@H](C)N(c2nc(OC[C@@H]3CCCN3C)nc3c(F)c(-c4c(C)ccc5[nH]nc(C6CC6)c45)c(Cl)cc23)C[C@H]1C (atropisomer, axis not shown) [Compound 228, 1-((2R,5S)-4-((R)-6-chloro-7-(3-cyclopropyl-5-methyl-1H-indazol-4-yl)-8-fluoro-2-(((S)-1-methylpyrrolidin-2-yl)methoxy)quinazolin-4-yl)-2,5-dimethylpiperazin-1-yl)prop-2-en-1-one] | +++ (+++ indicates binding activity greater than 80%)
C=CC(=O)N1C[C@H](C)N(c2nc(OC[C@@H]3CCCN3C)nc3c(F)c(-c4c(C)ccc5cnn(C)c45)c(Cl)cc23)C[C@H]1C (atropisomer, axis not shown) [Compound 234, 1-((2R,5S)-4-((S)-6-chloro-7-(1,6-dimethyl-1H-indazol-7-yl)-8-fluoro-2-(((S)-1-methylpyrrolidin-2-yl)methoxy)quinazolin-4-yl)-2,5-dimethylpiperazin-1-yl)prop-2-en-1-one] | ++ (++ indicates binding activity from 50 to 80%)
C=CC(=O)N1C[C@H](C)N(c2nc(OC[C@@H]3CCCN3C)nc3c(F)c(-c4c(C)ccc5cnn(C)c45)c(Cl)cc23)C[C@H]1C (atropisomer, axis not shown) [Compound 235, 1-((2R,5S)-4-((R)-6-chloro-7-(1,6-dimethyl-1H-indazol-7-yl)-8-fluoro-2-(((S)-1-methylpyrrolidin-2-yl)methoxy)quinazolin-4-yl)-2,5-dimethylpiperazin-1-yl)prop-2-en-1-one] | +++ (+++ indicates binding activity greater than 80%)
C=CC(=O)N1C[C@H](C)N(c2nc(OC[C@H]3CCCN3C)nc3c(F)c(-c4c(C)ccc5cnn(C)c45)c(Cl)cc23)C[C@H]1C (atropisomer, axis not shown) [Compound 236, 1-((2R,5S)-4-((R)-6-chloro-7-(1,6-dimethyl-1H-indazol-7-yl)-8-fluoro-2-(((R)-1-methylpyrrolidin-2-yl)methoxy)quinazolin-4-yl)-2,5-dimethylpiperazin-1-yl)prop-2-en-1-one] | + (+ indicates binding activity greater than 0% and up to 50%)
C=CC(=O)N1C[C@@H](C)N(c2nc(N3CC(N(C)C)C3)nc3c(F)c(-c4c(C)ccc5cnn(C)c45)c(Cl)cc23)C[C@H]1C (atropisomer, axis not shown) [Compound 242, 1-((2R,5R)-4-((S)-6-chloro-7-(1,6-dimethyl-1H-indazol-7-yl)-2-(3-(dimethylamino)azetidin-1-yl)-8-fluoroquinazolin-4-yl)-2,5-dimethylpiperazin-1-yl)prop-2-en-1-one] | + (+ indicates binding activity greater than 0% and up to 50%)
C=CC(=O)N1C[C@@H](C)N(c2nc(N3CC(N(C)C)C3)nc3c(F)c(-c4c(C)ccc5cnn(C)c45)c(Cl)cc23)C[C@H]1C (atropisomer, axis not shown) [Compound 243, 1-((2R,5R)-4-((R)-6-chloro-7-(1,6-dimethyl-1H-indazol-7-yl)-2-(3-(dimethylamino)azetidin-1-yl)-8-fluoroquinazolin-4-yl)-2,5-dimethylpiperazin-1-yl)prop-2-en-1-one] | +++ (+++ indicates binding activity greater than 80%)
C=CC(=O)N1C[C@@H](C)N(c2nc(N3CC(N(C)C)C3)nc3c(F)c(-c4c(C)ccc5cnn(C)c45)c(Cl)cc23)C[C@@H]1C (atropisomer, axis not shown) [Compound 245, 1-((2S,5R)-4-((S)-6-chloro-7-(1,6-dimethyl-1H-indazol-7-yl)-2-(3-(dimethylamino)azetidin-1-yl)-8-fluoroquinazolin-4-yl)-2,5-dimethylpiperazin-1-yl)prop-2-en-1-one] | + (+ indicates binding activity greater than 0% and up to 50%)
C=CC(=O)N1C[C@@H](C)N(c2nc(N3CC(N(C)C)C3)nc3c(F)c(-c4c(C)ccc5cnn(C)c45)c(Cl)cc23)C[C@@H]1C (atropisomer, axis not shown) [Compound 246, 1-((2S,5R)-4-((R)-6-chloro-7-(1,6-dimethyl-1H-indazol-7-yl)-2-(3-(dimethylamino)azetidin-1-yl)-8-fluoroquinazolin-4-yl)-2,5-dimethylpiperazin-1-yl)prop-2-en-1-one] | + (+ indicates binding activity greater than 0% and up to 50%)
C=CC(=O)N1C[C@H](C)N(c2nc(N3CC(N(C)C)C3)nc3c(F)c(-c4c(C)ccc5cnn(C)c45)c(Cl)cc23)C[C@@H]1C (atropisomer, axis not shown) [Compound 248, 1-((2S,5S)-4-((S)-6-chloro-7-(1,6-dimethyl-1H-indazol-7-yl)-2-(3-(dimethylamino)azetidin-1-yl)-8-fluoroquinazolin-4-yl)-2,5-dimethylpiperazin-1-yl)prop-2-en-1-one] | + (+ indicates binding activity greater than 0% and up to 50%)
C=CC(=O)N1C[C@H](C)N(c2nc(N3CC(N(C)C)C3)nc3c(F)c(-c4c(C)ccc5cnn(C)c45)c(Cl)cc23)C[C@@H]1C (atropisomer, axis not shown) [Compound 249, 1-((2S,5S)-4-((R)-6-chloro-7-(1,6-dimethyl-1H-indazol-7-yl)-2-(3-(dimethylamino)azetidin-1-yl)-8-fluoroquinazolin-4-yl)-2,5-dimethylpiperazin-1-yl)prop-2-en-1-one] | + (+ indicates binding activity greater than 0% and up to 50%)
C=CC(=O)N1C[C@@H](C)N(c2nc(N3CC(N(C)C)C3)nc3c(F)c(-c4c(C)ccc5[nH]nc(C6CC6)c45)c(Cl)cc23)C[C@H]1C (atropisomer, axis not shown) [Compound 250, 1-((2R,5R)-4-((S)-6-chloro-7-(3-cyclopropyl-5-methyl-1H-indazol-4-yl)-2-(3-(dimethylamino)azetidin-1-yl)-8-fluoroquinazolin-4-yl)-2,5-dimethylpiperazin-1-yl)prop-2-en-1-one] | + (+ indicates binding activity greater than 0% and up to 50%)
C=CC(=O)N1C[C@@H](C)N(c2nc(N3CC(N(C)C)C3)nc3c(F)c(-c4c(C)ccc5[nH]nc(C6CC6)c45)c(Cl)cc23)C[C@H]1C (atropisomer, axis not shown) [Compound 251, 1-((2R,5R)-4-((R)-6-chloro-7-(3-cyclopropyl-5-methyl-1H-indazol-4-yl)-2-(3-(dimethylamino)azetidin-1-yl)-8-fluoroquinazolin-4-yl)-2,5-dimethylpiperazin-1-yl)prop-2-en-1-one] | +++ (+++ indicates binding activity greater than 80%)
C=CC(=O)N1C[C@@H](C)N(c2nc(N3CC(N(C)C)C3)nc3c(F)c(-c4c(C)ccc5[nH]nc(C6CC6)c45)c(Cl)cc23)C[C@@H]1C (atropisomer, axis not shown) [Compound 252, 1-((2S,5R)-4-((S)-6-chloro-7-(3-cyclopropyl-5-methyl-1H-indazol-4-yl)-2-(3-(dimethylamino)azetidin-1-yl)-8-fluoroquinazolin-4-yl)-2,5-dimethylpiperazin-1-yl)prop-2-en-1-one] | + (+ indicates binding activity greater than 0% and up to 50%)
C=CC(=O)N1C[C@@H](C)N(c2nc(N3CC(N(C)C)C3)nc3c(F)c(-c4c(C)ccc5[nH]nc(C6CC6)c45)c(Cl)cc23)C[C@@H]1C (atropisomer, axis not shown) [Compound 253, 1-((2S,5R)-4-((R)-6-chloro-7-(3-cyclopropyl-5-methyl-1H-indazol-4-yl)-2-(3-(dimethylamino)azetidin-1-yl)-8-fluoroquinazolin-4-yl)-2,5-dimethylpiperazin-1-yl)prop-2-en-1-one] | + (+ indicates binding activity greater than 0% and up to 50%)
C=CC(=O)N1C[C@H](C)N(c2nc(N3CC(N(C)C)C3)nc3c(F)c(-c4c(C)ccc5[nH]nc(C6CC6)c45)c(Cl)cc23)C[C@@H]1C (atropisomer, axis not shown) [Compound 254, 1-((2S,5S)-4-((S)-6-chloro-7-(3-cyclopropyl-5-methyl-1H-indazol-4-yl)-2-(3-(dimethylamino)azetidin-1-yl)-8-fluoroquinazolin-4-yl)-2,5-dimethylpiperazin-1-yl)prop-2-en-1-one] | + (+ indicates binding activity greater than 0% and up to 50%)
C=CC(=O)N1C[C@H](C)N(c2nc(N3CC(N(C)C)C3)nc3c(F)c(-c4c(C)ccc5[nH]nc(C6CC6)c45)c(Cl)cc23)C[C@@H]1C (atropisomer, axis not shown) [Compound 255, 1-((2S,5S)-4-((R)-6-chloro-7-(3-cyclopropyl-5-methyl-1H-indazol-4-yl)-2-(3-(dimethylamino)azetidin-1-yl)-8-fluoroquinazolin-4-yl)-2,5-dimethylpiperazin-1-yl)prop-2-en-1-one] | + (+ indicates binding activity greater than 0% and up to 50%)
C=CC(=O)N1C[C@H](C)N(c2nc(OC[C@H]3CCCN3C)nc3c(F)c(-c4c(C)ccc5cnn(C)c45)c(Cl)cc23)C[C@H]1C (atropisomer, axis not shown) [Compound 261, 1-((2R,5S)-4-((S)-6-chloro-7-(1,6-dimethyl-1H-indazol-7-yl)-8-fluoro-2-(((R)-1-methylpyrrolidin-2-yl)methoxy)quinazolin-4-yl)-2,5-dimethylpiperazin-1-yl)prop-2-en-1-one] | +++ (+++ indicates binding activity greater than 80%)
